Assay results taken from PubChem BioAssay AID330 (DTP/NCI, 2004).
“And” between values parts separate entries of the source, which are not always exact repeats. Equal values may be shown once. Toxic doses and inconclusive results are not listed. How the source made its calls: active means survival T/C of 150% or more; inactive means T/C below 125% in these data.

Test system: P388 leukemia ip, CD2F1 mice, survival T/C
Assay: NCI In Vivo Anticancer Drug Screen. Data for tumor model P388 Leukemia (intraperitoneal) in CD2F1 (CDF1) mice
Settings: endpoint: median survival time, higher = longer survival
Method in brief: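 Mice carrying the transplanted tumor received test compound or vehicle. Survival was recorded in each group, and the value is the treated-group measurement divided by that of the vehicle-treated control group.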

[1] = dose: 50.0 mg/kg/injection, schedule: Q01DX009 (ip), vehicle: saline with Tween-80
[2] = dose: 100.0 mg/kg/injection, schedule: Q01DX009 (ip), vehicle: saline with Tween-80
[3] = dose: 200.0 mg/kg/injection, schedule: Q01DX009 (ip), vehicle: saline with Tween-80
[4] = dose: 6.25 mg/kg/injection, schedule: Q01DX009 (ip), vehicle: saline with Tween-80
[5] = dose: 12.5 mg/kg/injection, schedule: Q01DX009 (ip), vehicle: saline with Tween-80

Measured: T/C

CCC(C)N(CCNc1cc(OC)cc2cccnc12)CC(C)C (centres undefined)
inactive: dose: 12.5 mg/kg/injection, schedule: Q01DX005 (ip), vehicle: saline 104 % of control | dose: 25.0 mg/kg/injection, schedule: Q01DX005 (ip), vehicle: saline 104 % of control | dose: 50.0 mg/kg/injection, schedule: Q01DX005 (ip), vehicle: saline 101 % of control and 95 % of control

O=C1/C(=C\c2ccccc2)SC(=S)N1c1cccc(Br)c1
inactive: dose: 25.0 mg/kg/injection, schedule: Q01DX005 (ip), vehicle: saline with Tween-80 87 % of control | dose: 50.0 mg/kg/injection, schedule: Q01DX005 (ip), vehicle: saline with Tween-80 97 % of control | dose: 100.0 mg/kg/injection, schedule: Q01DX005 (ip), vehicle: saline with Tween-80 106 % of control

O=C(/C=C/c1ccc2c(c1)OCO2)c1ccc(Cl)cc1
inactive: [1] 86 % of control | [2] 100 % of control | [3] 95 % of control

O=c1oc2cc(N=Cc3ccccc3Cl)ccc2c2ccccc12
inactive: dose: 6.25 mg/kg/injection, schedule: Q01DX009 (ip), vehicle: saline 90 % of control | dose: 12.5 mg/kg/injection, schedule: Q01DX009 (ip), vehicle: saline 90 % of control | dose: 25.0 mg/kg/injection, schedule: Q01DX009 (ip), vehicle: saline 91 % of control | [1] 98 % of control | dose: 50.0 mg/kg/injection, schedule: Q01DX009 (ip), vehicle: saline 91 % of control | [2] 114 % of control | [3] 113 % of control | dose: 400.0 mg/kg/injection, schedule: Q01DX009 (ip), vehicle: saline with Tween-80 87 % of control

C=Cc1c2[n-]c(c1C)/C=C1\[N-]/C(=C3\c4[n-]c(c(C)c4C(=O)C3C(=O)O)/C=c3\[n-]/c(c(C)c3CC)=C\2)C(CCC(=O)O)C1C.[Pt+4] (centres undefined)
inactive: dose: 50.0 mg/kg/injection, schedule: Q04DX002 (ip), vehicle: saline 100 % of control | dose: 100.0 mg/kg/injection, schedule: Q04DX002 (ip), vehicle: saline 90 % of control | dose: 200.0 mg/kg/injection, schedule: Q04DX002 (ip), vehicle: saline 88 % of control

Cc1ccc(Cl)cc1NC(=O)N(C)CCOC(=O)Nc1cccc(Cl)c1
inactive: dose: 60.0 mg/kg/injection, schedule: Q01DX005 (ip), vehicle: Klucel + Tween-80 93 % of control | dose: 120.0 mg/kg/injection, schedule: Q01DX005 (ip), vehicle: Klucel + Tween-80 92 % of control

Cn1nc(-c2ccc(Cl)c(Cl)c2)[n+]([O-])c2c(=O)n(C)c(=O)nc1-2
inactive: [4] 120 % of control | [5] 110 % of control and 115 % of control

O.Oc1ccccc1C=NCCC[N-]CCCN=Cc1ccccc1O.[Co]
inactive: dose: 3.13 mg/kg/injection, schedule: Q01DX009 (ip), vehicle: saline with Tween-80 102 % of control | [4] 102 % of control | [5] 123 % of control | dose: 25.0 mg/kg/injection, schedule: Q01DX009 (ip), vehicle: saline with Tween-80 100 % of control and 115 % of control

CC(C)(C)c1cc(C(=O)O)c2c(c1)C(=O)OCS2
inactive: dose: 100.0 mg/kg/injection, schedule: Q04DX003 (ip), vehicle: Klucel (hydroxypropylcellulose) (HPC) 99 % of control | dose: 200.0 mg/kg/injection, schedule: Q04DX003 (ip), vehicle: Klucel (hydroxypropylcellulose) (HPC) 91 % of control | dose: 400.0 mg/kg/injection, schedule: Q04DX003 (ip), vehicle: Klucel (hydroxypropylcellulose) (HPC) 97 % of control

Cc1ccc(Cl)c(NC(=S)NCc2cccnc2)c1
inactive: dose: 50.0 mg/kg/injection, schedule: Q01DX009 (ip), vehicle: Klucel (hydroxypropylcellulose) (HPC) 97 % of control | dose: 100.0 mg/kg/injection, schedule: Q01DX009 (ip), vehicle: Klucel (hydroxypropylcellulose) (HPC) 103 % of control | dose: 200.0 mg/kg/injection, schedule: Q01DX009 (ip), vehicle: Klucel (hydroxypropylcellulose) (HPC) 108 % of control

Cc1cc(Cl)c2cc3c(cc2n1)CCCC3
inactive: dose: 60.0 mg/kg/injection, schedule: Q01DX005 (ip), vehicle: Klucel (hydroxypropylcellulose) (HPC) 102 % of control | dose: 120.0 mg/kg/injection, schedule: Q01DX005 (ip), vehicle: Klucel (hydroxypropylcellulose) (HPC) 109 % of control

CCC[CH2][Sn]([CH2]CCC)([N]=C=S)[N]=C=S
inactive: dose: 0.78 mg/kg/injection, schedule: Q01DX009 (ip), vehicle: saline 108 % of control | dose: 1.56 mg/kg/injection, schedule: Q01DX009 (ip), vehicle: saline 100 % of control | dose: 3.12 mg/kg/injection, schedule: Q01DX009 (ip), vehicle: saline 100 % of control

COc1cccc2c1C(=O)c1c(OC)c(CSC(=N)N)cc(OC)c1C2=O
inactive: dose: 2.0 mg/kg/injection, schedule: Q01DX009 (ip), vehicle: water 99 % of control | dose: 4.0 mg/kg/injection, schedule: Q01DX009 (ip), vehicle: water 104 % of control | dose: 8.0 mg/kg/injection, schedule: Q01DX009 (ip), vehicle: water 104 % of control | dose: 16.0 mg/kg/injection, schedule: Q01DX009 (ip), vehicle: water 117 % of control | dose: 32.0 mg/kg/injection, schedule: Q01DX009 (ip), vehicle: water 121 % of control | dose: 64.0 mg/kg/injection, schedule: Q01DX009 (ip), vehicle: water 111 % of control

CC(=O)CC(c1ccccc1)c1c(O)c2ccccc2oc1=O (centres undefined)
inactive: dose: 0.02 mg/kg/injection, schedule: Q01DX009 (ip), vehicle: Klucel (hydroxypropylcellulose) (HPC) 93 % of control and 96 % of control | dose: 0.05 mg/kg/injection, schedule: Q01DX009 (ip), vehicle: Klucel (hydroxypropylcellulose) (HPC) 100 % of control | dose: 0.05 mg/kg/injection, schedule: Q01DX009 (ip), vehicle: saline 99 % of control | dose: 0.06 mg/kg/injection, schedule: Q01DX009 (ip), vehicle: other 99 % of control | dose: 0.1 mg/kg/injection, schedule: Q01DX009 (ip), vehicle: Klucel (hydroxypropylcellulose) (HPC) 96 % of control and 97 % of control | dose: 0.1 mg/kg/injection, schedule: Q01DX009 (ip), vehicle: saline 96 % of control | dose: 0.13 mg/kg/injection, schedule: Q01DX009 (ip), vehicle: other 92 % of control | dose: 0.2 mg/kg/injection, schedule: Q01DX009 (ip), vehicle: Klucel (hydroxypropylcellulose) (HPC) 95 % of control and 96 % of control | dose: 0.2 mg/kg/injection, schedule: Q01DX009 (ip), vehicle: saline 109 % of control and 92 % of control | dose: 0.25 mg/kg/injection, schedule: Q01DX009 (ip), vehicle: other 95 % of control | dose: 0.4 mg/kg/injection, schedule: Q01DX009 (ip), vehicle: Klucel (hydroxypropylcellulose) (HPC) 91 % of control and 95 % of control | dose: 0.4 mg/kg/injection, schedule: Q01DX009 (ip), vehicle: saline 98 % of control and 90 % of control | dose: 0.5 mg/kg/injection, schedule: Q01DX009 (ip), vehicle: saline with Tween-80 97 % of control | dose: 0.8 mg/kg/injection, schedule: Q01DX009 (ip), vehicle: saline 101 % of control and 91 % of control | dose: 1.0 mg/kg/injection, schedule: Q01DX001 (ip), vehicle: saline + alcohol 101 % of control | dose: 1.0 mg/kg/injection, schedule: Q01DX009 (ip), vehicle: saline with Tween-80 93 % of control | dose: 2.0 mg/kg/injection, schedule: Q01DX001 (ip), vehicle: saline + alcohol 101 % of control | dose: 4.0 mg/kg/injection, schedule: Q01DX001 (ip), vehicle: saline + alcohol 95 % of control | dose: 4.0 mg/kg/injection, schedule: Q04HX002 (ip), vehicle: saline with Tween-80 96 % of control | dose: 8.0 mg/kg/injection, schedule: Q04HX002 (ip), vehicle: saline with Tween-80 99 % of control and 86 % of control | dose: 16.0 mg/kg/injection, schedule: Q04HX002 (ip), vehicle: saline with Tween-80 106 % of control and 96 % of control

Cc1ccc(/C=N/NC(=O)CNC(=O)c2ccccc2)cc1
inactive: dose: 60.0 mg/kg/injection, schedule: Q01DX005 (ip), vehicle: saline with Tween-80 97 % of control | dose: 120.0 mg/kg/injection, schedule: Q01DX005 (ip), vehicle: saline with Tween-80 92 % of control | dose: 240.0 mg/kg/injection, schedule: Q01DX005 (ip), vehicle: saline with Tween-80 97 % of control
